Like-named read-outs stand apart in the source and are kept apart here.
Target: full-length human ATR protein (Homo sapiens (Human), UniProt Q13535)
Test: Binding assay ATR (TR-FRET tracer displacement)
Conditions: TR-FRET
Outline: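 Full-length human GST-ATR co-purified with ATRIP, pre-complexed 30 min at 22 °C with anti-GST-Tb antibody, then pre-bound with compound 10 min. Tracer A or B added (2 µl of 100 nM solution), 30 min at 22 °C.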

[1] = tracer A, read-out: ATR binding (tracer A) IC50
[2] = tracer B, read-out: ATR binding (tracer B) IC50

full-length human ATR protein, sequence (Q13535 other isoform, or with tags, fused parts or gaps): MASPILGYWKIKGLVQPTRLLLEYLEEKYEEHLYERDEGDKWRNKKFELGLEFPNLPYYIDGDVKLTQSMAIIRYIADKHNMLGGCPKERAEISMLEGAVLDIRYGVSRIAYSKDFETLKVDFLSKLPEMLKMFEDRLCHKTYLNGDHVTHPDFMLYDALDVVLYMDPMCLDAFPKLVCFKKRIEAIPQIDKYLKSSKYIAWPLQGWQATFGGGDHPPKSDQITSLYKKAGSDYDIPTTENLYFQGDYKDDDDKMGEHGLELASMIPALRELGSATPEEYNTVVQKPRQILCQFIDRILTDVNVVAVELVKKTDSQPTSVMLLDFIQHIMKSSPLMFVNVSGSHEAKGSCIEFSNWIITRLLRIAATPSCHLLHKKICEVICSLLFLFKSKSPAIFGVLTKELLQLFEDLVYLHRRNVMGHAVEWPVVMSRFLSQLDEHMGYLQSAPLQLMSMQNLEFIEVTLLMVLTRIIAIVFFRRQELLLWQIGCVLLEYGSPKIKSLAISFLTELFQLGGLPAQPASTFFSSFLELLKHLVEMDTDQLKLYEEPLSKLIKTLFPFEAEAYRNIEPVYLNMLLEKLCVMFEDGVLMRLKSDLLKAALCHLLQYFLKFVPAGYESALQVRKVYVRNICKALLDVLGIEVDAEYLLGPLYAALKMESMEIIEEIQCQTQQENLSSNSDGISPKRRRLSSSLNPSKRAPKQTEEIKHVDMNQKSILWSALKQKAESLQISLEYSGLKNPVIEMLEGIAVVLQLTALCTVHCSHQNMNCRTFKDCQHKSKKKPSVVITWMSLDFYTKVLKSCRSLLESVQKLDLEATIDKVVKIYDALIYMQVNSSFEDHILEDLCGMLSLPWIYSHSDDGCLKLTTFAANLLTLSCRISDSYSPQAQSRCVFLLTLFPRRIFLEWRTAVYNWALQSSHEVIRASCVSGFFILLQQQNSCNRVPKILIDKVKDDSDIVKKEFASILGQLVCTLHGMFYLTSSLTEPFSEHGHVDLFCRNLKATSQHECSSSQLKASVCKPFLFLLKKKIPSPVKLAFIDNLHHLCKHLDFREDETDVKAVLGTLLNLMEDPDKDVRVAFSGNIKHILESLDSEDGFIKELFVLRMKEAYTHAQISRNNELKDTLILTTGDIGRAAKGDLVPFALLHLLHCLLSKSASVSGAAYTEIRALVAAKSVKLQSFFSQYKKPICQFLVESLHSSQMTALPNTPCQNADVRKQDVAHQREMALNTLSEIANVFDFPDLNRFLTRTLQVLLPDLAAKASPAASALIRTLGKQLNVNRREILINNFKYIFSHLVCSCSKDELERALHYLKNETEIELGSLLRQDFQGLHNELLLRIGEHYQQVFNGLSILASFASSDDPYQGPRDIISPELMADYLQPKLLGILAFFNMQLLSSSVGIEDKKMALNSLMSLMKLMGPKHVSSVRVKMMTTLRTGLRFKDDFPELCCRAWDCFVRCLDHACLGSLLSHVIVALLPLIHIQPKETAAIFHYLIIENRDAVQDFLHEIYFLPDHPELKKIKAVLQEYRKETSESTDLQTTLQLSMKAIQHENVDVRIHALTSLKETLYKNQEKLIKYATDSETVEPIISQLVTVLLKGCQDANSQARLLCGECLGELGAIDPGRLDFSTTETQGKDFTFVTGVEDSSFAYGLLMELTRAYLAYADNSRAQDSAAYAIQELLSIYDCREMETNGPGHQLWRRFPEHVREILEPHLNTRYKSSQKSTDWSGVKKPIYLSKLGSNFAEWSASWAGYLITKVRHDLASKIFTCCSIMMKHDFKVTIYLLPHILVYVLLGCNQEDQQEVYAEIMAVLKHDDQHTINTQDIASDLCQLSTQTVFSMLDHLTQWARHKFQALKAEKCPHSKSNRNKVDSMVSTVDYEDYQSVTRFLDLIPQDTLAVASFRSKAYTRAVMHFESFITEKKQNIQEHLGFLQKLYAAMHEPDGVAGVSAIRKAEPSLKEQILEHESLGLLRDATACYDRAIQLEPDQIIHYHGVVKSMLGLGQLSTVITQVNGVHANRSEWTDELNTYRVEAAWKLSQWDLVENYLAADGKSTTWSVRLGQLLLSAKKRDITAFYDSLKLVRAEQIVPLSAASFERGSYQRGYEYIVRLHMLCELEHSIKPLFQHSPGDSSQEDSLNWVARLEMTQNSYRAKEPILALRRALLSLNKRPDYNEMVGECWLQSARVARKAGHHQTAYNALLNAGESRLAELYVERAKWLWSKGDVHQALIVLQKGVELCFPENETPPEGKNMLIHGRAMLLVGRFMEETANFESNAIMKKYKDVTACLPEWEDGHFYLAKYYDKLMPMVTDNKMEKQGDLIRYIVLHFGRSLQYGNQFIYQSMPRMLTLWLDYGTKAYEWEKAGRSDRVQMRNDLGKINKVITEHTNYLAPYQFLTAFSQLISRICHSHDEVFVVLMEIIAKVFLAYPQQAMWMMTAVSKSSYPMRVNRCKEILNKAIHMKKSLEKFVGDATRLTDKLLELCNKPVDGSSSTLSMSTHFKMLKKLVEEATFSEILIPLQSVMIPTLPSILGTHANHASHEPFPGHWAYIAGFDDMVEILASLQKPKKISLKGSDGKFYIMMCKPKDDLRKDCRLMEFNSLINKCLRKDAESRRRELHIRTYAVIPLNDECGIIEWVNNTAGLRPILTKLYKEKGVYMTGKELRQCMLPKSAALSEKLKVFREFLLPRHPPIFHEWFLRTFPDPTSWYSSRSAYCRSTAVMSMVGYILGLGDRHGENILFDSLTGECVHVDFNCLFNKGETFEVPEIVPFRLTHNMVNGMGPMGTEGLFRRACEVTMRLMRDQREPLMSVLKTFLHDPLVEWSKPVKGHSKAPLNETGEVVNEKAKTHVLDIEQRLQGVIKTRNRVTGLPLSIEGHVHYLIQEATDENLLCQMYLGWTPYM
full-length human ATR protein, sequence (Q8WXE1 other isoform, or with tags, fused parts or gaps partner): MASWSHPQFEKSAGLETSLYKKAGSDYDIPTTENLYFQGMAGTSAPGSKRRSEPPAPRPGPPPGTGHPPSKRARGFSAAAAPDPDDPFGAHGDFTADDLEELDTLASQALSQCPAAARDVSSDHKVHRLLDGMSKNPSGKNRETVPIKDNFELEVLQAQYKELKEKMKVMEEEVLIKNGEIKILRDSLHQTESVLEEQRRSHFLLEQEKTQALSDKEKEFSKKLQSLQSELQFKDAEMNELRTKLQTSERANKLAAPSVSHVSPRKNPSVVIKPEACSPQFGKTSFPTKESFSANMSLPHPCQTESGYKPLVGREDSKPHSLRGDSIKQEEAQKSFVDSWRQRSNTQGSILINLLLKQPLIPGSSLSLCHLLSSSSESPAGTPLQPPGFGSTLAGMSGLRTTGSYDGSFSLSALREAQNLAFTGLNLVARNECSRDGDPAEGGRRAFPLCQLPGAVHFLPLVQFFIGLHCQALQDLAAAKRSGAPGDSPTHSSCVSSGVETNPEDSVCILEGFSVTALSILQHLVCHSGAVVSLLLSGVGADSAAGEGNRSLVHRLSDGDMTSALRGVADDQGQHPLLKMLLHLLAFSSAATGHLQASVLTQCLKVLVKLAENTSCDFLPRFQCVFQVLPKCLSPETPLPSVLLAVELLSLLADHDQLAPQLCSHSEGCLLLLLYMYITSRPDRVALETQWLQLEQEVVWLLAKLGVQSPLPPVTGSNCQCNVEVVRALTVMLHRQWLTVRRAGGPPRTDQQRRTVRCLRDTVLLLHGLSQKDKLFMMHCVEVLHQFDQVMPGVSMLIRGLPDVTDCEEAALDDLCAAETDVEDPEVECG

C[C@@H]1COCCN1c1cc(N2CCN(C)C(=O)C2)c2ccnc(-c3ccn[nH]3)c2n1 [Example 157, 1-methyl-4-{2-[(3R)-3-methylmorpholin-4-yl]-8-(1H-pyrazol-5-yl)-1,7-naphthyridin-4-yl}piperazin-2-one]
IC50 [1]: 91.8 nM

CN(c1ccccc1F)c1cc(N2CCOCC2)nc2c(-c3ccn[nH]3)nccc12 [Example 427, N-(2-fluorophenyl)-N-methyl-2-(morpholin-4-yl)-8-(1H-pyrazol-5-yl)-1,7-naphthyridin-4-amine]
IC50 [1]: 112 nM

Fc1ncccc1-c1cc(N2CCOCC2)nc2c(-c3ccn[nH]3)nccc12 [Example 359, 4-(2-fluoropyridin-3-yl)-2-(morpholin-4-yl)-8-(1H-pyrazol-5-yl)-1,7-naphthyridine]
IC50 [1]: 85.5 nM

Cc1nc(F)ccc1-c1cc(N2CCOC[C@H]2C)nc2c(-c3ccn[nH]3)nccc12 [Example 97, 4-(6-fluoro-2-methylpyridin-3-yl)-2-[(3R)-3-methylmorpholin-4-yl]-8-(1H-pyrazol-5-yl)-1,7-naphthyridine]
IC50 [1]: 13.9 nM

C[C@@H]1COCCN1c1cc(C(N)=O)c2ccnc(-c3cc[nH]n3)c2n1 [Example 285, 2-[(3R)-3-methylmorpholin-4-yl]-8-(1H-pyrazol-3-yl)-1,7-naphthyridine-4-carboxamide]
IC50 [1]: 509 nM

Cn1cccc1-c1cc(N2CCOCC2)nc2c(-c3ccn[nH]3)nccc12 [Example 389, 4-(1-methyl-1H-pyrrol-2-yl)-2-(morpholin-4-yl)-8-(1H-pyrazol-5-yl)-1,7-naphthyridine]
IC50 [1]: 26.6 nM

c1coc(Cc2cc(N3CCOCC3)nc3c(-c4ccn[nH]4)nccc23)c1 [Example 310, 4-(furan-2-ylmethyI)-2-(morpholin-4-yl)-8-(1H-pyrazol-5-yl)-1,7-naphthyridine]
IC50 [1]: 97.7 nM

C[C@@H]1COCCN1c1cc(-c2ccccc2N(C)C)c2ccnc(-c3ccn[nH]3)c2n1 [Example 122, N,N-dimethyl-2-{2-[(3R)-3-methylmorpholin-4-yl]-8-(1H-pyrazol-5-yl)-1,7-naphthyridin-4-yl}aniline]
IC50 [1]: 19.4 nM

C[C@@H]1COCCN1c1cc(N(C)C2CC2)c2ccnc(-c3ccn[nH]3)c2n1 [Example 85, N-cyclopropyl-N-methyl-2-[(3R)-3-methylmorpholin-4-yl]-8-(1H-pyrazol-5-yl)-1,7-naphthyridin-4-amine]
IC50 [1]: 11.9 nM

COC1CCN(c2cc(N3CCOCC3)nc3c(-c4ccn[nH]4)nccc23)CC1 [Example 430, 4-(4-methoxypiperidin-1-yl)-2-(morpholin-4-yl)-8-(1H-pyrazol-5-yl)-1,7-naphthyridine]
IC50 [1]: 61.3 nM

c1ccc2c(-c3cc(N4CCOCC4)nc4c(-c5ccn[nH]5)nccc34)cncc2c1 [Example 363, 4-(isoquinolin-4-yl)-2-(morpholin-4-yl)-8-(1H-pyrazol-5-yl)-1,7-naphthyridine]
IC50 [1]: 191 nM

CC(C)Oc1cc(N2[C@H](C)COC[C@H]2C)nc2c(-c3ccn[nH]3)nccc12 [Example 59, 2-[(3R,5R)-3,5-dimethylmorpholin-4-yl]-4-isopropoxy-8-(1H-pyrazol-5-yl)-1,7-naphthyridine]
IC50 [1]: 730 nM
IC50 [2]: 1250 nM

C[C@@H]1COCCN1c1cc(-c2cccnc2N)c2ccnc(-c3ccn[nH]3)c2n1 [Example 155, 3-{2-[(3R)-3-methylmorpholin-4-yl]-8-(1H-pyrazol-5-yl)-1,7-naphthyridin-4-yl}pyridin-2-amine]
IC50 [1]: 63.3 nM

OCc1cc(N2CCOCC2)nc2c(-c3ccn[nH]3)nccc12 [Example 38, [2-(morpholin-4-yl)-8-(2H-pyrazol-3-yl)-[1,7]naphthyridine-4-yl]methanol]
IC50 [1]: 502 nM
IC50 [2]: 405 nM

Cn1nccc1-c1cc(N2CCOCC2)nc2c(-c3ccn[nH]3)nccc12 [Example 348, 4-(1-methyl-1H-pyrazol-5-yl)-2-(morpholin-4-yl)-8-(1H-pyrazol-5-yl)-1,7-naphthyridine]
IC50 [1]: 55.3 nM

Cc1cc(S(C)(=O)=O)ncc1-c1cc(N2CCOCC2)nc2c(-c3ccn[nH]3)nccc12 [Example 6, 4-[4-methyl-6-(methylsulfonyl)pyridin-3-yl]-2-(morpholin-4-yl)-8-(1H-pyrazol-5-yl)-1,7-naphthyridine]
IC50 [1]: 68.6 nM

c1ccc(COc2cc(N3CCOCC3)nc3c(-c4cc[nH]n4)nccc23)cc1 [Example 50, 4-benzyloxy-2-(morpholin-4-yl)-8-(1H-pyrazol-3-yl)-[1,7]naphthyridine]
IC50 [1]: 410 nM
IC50 [2]: 514 nM

O=S1(=Nc2cc(N3CCOCC3)nc3c(-c4ccn[nH]4)nccc23)CCOCC1 [Example 279, formic acid - N-[2-(morpholin-4-yl)-8-(1H-pyrazol-5-yl)-1,7-naphthyridin-4-yI]-1,4k4-oxathian-4-imine 4-oxide (1:1)]
IC50 [1]: 293 nM

OC1(C(F)(F)F)CN(c2cc(N3CCOCC3)nc3c(-c4ccn[nH]4)nccc23)C1 [Example 180, 1-[2-(morpholin-4-yl)-8-(1H-pyrazol-5-yl)-1,7-naphthyridin-4-yl]-3-(trifluoromethyl)azetidin-3-ol]
IC50 [1]: 487 nM

COc1ccc(F)cc1-c1cc(N2CCOCC2)nc2c(-c3ccn[nH]3)nccc12 [Example 339, 4-(5-fluoro-2-methoxyphenyl)-2-(morpholin-4-yl)-8-(1H-pyrazol-5-yl)-1,7-naphthyridine]
IC50 [1]: 89.6 nM

c1cc(-c2nccc3c(-c4ccnc5[nH]ccc45)cc(N4CCOCC4)nc23)[nH]n1 [Example 401, 2-(morpholin-4-yl)-8-(1H-pyrazol-5-yl)-4-(1H-pyrrolo[2,3-b]pyridin-4-yl)-1,7-naphthyridine]
IC50 [1]: 87.5 nM

c1cc(-c2nccc3c(N4CCn5ccnc5C4)cc(N4CCOCC4)nc23)[nH]n1 [Example 169, 4-(5,6-dihydroimidazo[1,2-a]pyrazin-7(8H)-yl)-2-(morpholin-4-yl)-8-(1H-pyrazol-5-yl)-1,7-naphthyridine]
IC50 [1]: 115 nM

CCOc1ncccc1-c1cc(N2CCOCC2)nc2c(-c3ccn[nH]3)nccc12 [Example 383, 4-(2-ethoxypyridin-3-yl)-2-(morpholin-4-yl)-8-(1H-pyrazol-5-yl)-1,7-naphthyridine]
IC50 [1]: 239 nM

COc1ncc(-c2cc(N3CCOC[C@H]3C)nc3c(-c4ccn[nH]4)nccc23)cc1C [Example 96, 4-(6-methoxy-5-methylpyridin-3-yl)-2-[(3R)-3-methylmorpholin-4-yl]-8-(1H-pyrazol-5-yl)-1,7-naphthyridine]
IC50 [1]: 12.7 nM

C[C@@H]1COCCN1c1cc(-c2ccccc2)c2ccnc(-c3cc[nH]n3)c2n1 [Example 27, 2-((R)-3-methylmorpholin-4-yl)-4-phenyl-8-(2H-pyrazol-3-yl)-[1,7]naphthyridine]
IC50 [1]: 17.2 nM
IC50 [2]: 10.9 nM

c1cc(-c2nccc3c(OCC4CCCO4)cc(N4CCOCC4)nc23)[nH]n1 (centres unmarked) [Example 46, 2-(morpholin-4-yl)-8-(1H-pyrazol-5-yl)-4-(tetrahydrofuran-2-ylmethoxy)-1,7-naphthyridine]
IC50 [1]: 262 nM

C[C@@H]1COCCN1c1cc(C#N)c2ccnc(-c3ccn[nH]3)c2n1 [Example 35, 2-((R)-3-methylmorpholin-4-yl)-8-(-2H-pyrazol-3-yl]-[1,7]naphthyridine-4-carbonitrile]
IC50 [1]: 122 nM
IC50 [2]: 75.5 nM

— patent US9549932B2, “2-(morpholin-4-yl)-1,7-naphthyridines” (BAYER PHARMA AKTIENGESELLSCHAFT, priority 2014, dated 2017)
